# ChEMBL document CHEMBL4831516, “Development of Membrane-Active Honokiol/Magnolol Amphiphiles as Potent Antibacterial Agents against Methicillin-Resistant Staphylococcus aureus (MRSA)” (J Med Chem, 2021)
# Assays:
# Staphylococcus aureus [1] = experiment: Antibacterial activity against methicillin-resistant Staphylococcus aureus clinical isolate M-20 assessed as inhibition of visible growth incubated for 16 to 18 hrs by CLSI method; type: functional; conditions: time 16-18 hrs, read-out: MIC100
# Enterococcus faecalis = experiment: Antibacterial activity against Enterococcus faecalis ATCC29212 assessed as inhibition of visible growth incubated for 16 to 18 hrs by CLSI method; type: functional; conditions: time 16-18 hrs, read-out: MIC100
# Escherichia coli = experiment: Antibacterial activity against Escherichia coli ATCC25922 assessed as inhibition of visible growth incubated for 16 to 18 hrs by CLSI method; type: functional; conditions: time 16-18 hrs, read-out: MIC100
# Staphylococcus aureus [2] = experiment: Antibacterial activity against methicillin-resistant Staphylococcus aureus clinical isolate M-15 assessed as inhibition of visible growth incubated for 16 to 18 hrs by CLSI method; type: functional; conditions: time 16-18 hrs, read-out: MIC100
# Staphylococcus aureus [3] = experiment: Antibacterial activity against methicillin-resistant Staphylococcus aureus clinical isolate M-12 assessed as inhibition of visible growth incubated for 16 to 18 hrs by CLSI method; type: functional; conditions: time 16-18 hrs, read-out: MIC100
# Staphylococcus aureus [4] = experiment: Antibacterial activity against methicillin-resistant Staphylococcus aureus clinical isolate M-11 assessed as inhibition of visible growth incubated for 16 to 18 hrs by CLSI method; type: functional; conditions: time 16-18 hrs, read-out: MIC100
# Staphylococcus aureus [5] = experiment: Antibacterial activity against methicillin-resistant Staphylococcus aureus clinical isolate M-13 assessed as inhibition of visible growth incubated for 16 to 18 hrs by CLSI method; type: functional; conditions: time 16-18 hrs, read-out: MIC100
# [6] = system: Stenotrophomonas maltophilia; experiment: Antibacterial activity against Stenotrophomonas maltophilia assessed as inhibition of visible growth incubated for 16 to 18 hrs by CLSI method; type: functional; conditions: time 16-18 hrs, read-out: MIC100
# Staphylococcus aureus [7] = experiment: Antibacterial activity against methicillin-resistant Staphylococcus aureus clinical isolate M-17 assessed as inhibition of visible growth incubated for 16 to 18 hrs by CLSI method; type: functional; conditions: time 16-18 hrs, read-out: MIC100
# Salmonella enterica [8] = experiment: Antibacterial activity against Salmonella enterica 8389 assessed as inhibition of visible growth incubated for 16 to 18 hrs by CLSI method; type: functional; conditions: time 16-18 hrs, read-out: MIC100
# Staphylococcus aureus [9] = experiment: Antibacterial activity against Staphylococcus aureus ATCC29213 assessed as inhibition of visible growth incubated for 16 to 18 hrs by CLSI method; type: functional; conditions: time 16-18 hrs, read-out: MIC100
# Staphylococcus aureus [10] = experiment: Antibacterial activity against methicillin-resistant Staphylococcus aureus clinical isolate M-14 assessed as inhibition of visible growth incubated for 16 to 18 hrs by CLSI method; type: functional; conditions: time 16-18 hrs, read-out: MIC100
# Bacillus subtilis = experiment: Antibacterial activity against Bacillus subtilis assessed as inhibition of visible growth incubated for 16 to 18 hrs by CLSI method; type: functional; conditions: time 16-18 hrs, read-out: MIC100
# Staphylococcus aureus [11] = experiment: Antibacterial activity against methicillin-resistant Staphylococcus aureus clinical isolate M-16 assessed as inhibition of visible growth incubated for 16 to 18 hrs by CLSI method; type: functional; conditions: time 16-18 hrs, read-out: MIC100
# Staphylococcus aureus [12] = experiment: Antibacterial activity against methicillin-resistant Staphylococcus aureus clinical isolate M-19 assessed as inhibition of visible growth incubated for 16 to 18 hrs by CLSI method; type: functional; conditions: time 16-18 hrs, read-out: MIC100
# [13] = Hemolytic activity in sheep RBC assessed as hemolysis incubated for 1 hr; type: ADME, cell-based, Ovis aries, Erythrocyte; conditions: sheep red blood cells (erythrocytes)
# Staphylococcus aureus [14] = experiment: Antibacterial activity against methicillin-resistant Staphylococcus aureus clinical isolate M-18 assessed as inhibition of visible growth incubated for 16 to 18 hrs by CLSI method; type: functional; conditions: time 16-18 hrs, read-out: MIC100
# [15] = Selectivity index, HC50 for hemolytic activity in sheep RBC to MIC for antibacterial activity against Staphylococcus aureus ATCC29213; type: toxicity; conditions: sheep red blood cells (erythrocytes), read-out: Selectivity Index
# Salmonella enterica [16] = experiment: Antibacterial activity against Salmonella enterica 349812 assessed as inhibition of visible growth incubated for 16 to 18 hrs by CLSI method; type: functional; conditions: time 16-18 hrs, read-out: MIC100
# Micrococcus luteus = experiment: Antibacterial activity against Micrococcus luteus assessed as inhibition of visible growth incubated for 16 to 18 hrs by CLSI method; type: functional; conditions: time 16-18 hrs, read-out: MIC100
SMILES,MIC (Staphylococcus aureus [1]) [µg/mL],MIC (Enterococcus faecalis) [µg/mL],MIC (Escherichia coli) [µg/mL],MIC (Staphylococcus aureus [2]) [µg/mL],MIC (Staphylococcus aureus [3]) [µg/mL],MIC (Staphylococcus aureus [4]) [µg/mL],MIC (Staphylococcus aureus [5]) [µg/mL],MIC [6] [µg/mL],MIC (Staphylococcus aureus [7]) [µg/mL],MIC (Salmonella enterica [8]) [µg/mL],MIC (Staphylococcus aureus [9]) [µg/mL],MIC (Staphylococcus aureus [10]) [µg/mL],MIC (Bacillus subtilis) [µg/mL],MIC (Staphylococcus aureus [11]) [µg/mL],MIC (Staphylococcus aureus [12]) [µg/mL],HC50 at 1 h [13] [µg/mL],MIC (Staphylococcus aureus [14]) [µg/mL],selectivity ratio [15],MIC (Salmonella enterica [16]) [µg/mL],MIC (Micrococcus luteus) [µg/mL]
C=CCc1ccc(O)c(-c2cc(CC=C)ccc2OCC[N+](C)(C)CC(=O)NCCCCC)c1.[Br-],8,16,32,8,16,16,8,64,8,64,8,8,4,8,8,645,8,80.7,64,4
C=CCc1ccc(OCCC[N+](C)(C)CC(=O)NCCCCC)c(-c2ccc(OCCC[N+](C)(C)CC(=O)NCCCCC)c(CC=C)c2)c1.[Br-].[Br-],4,4,16,2,2,4,4,16,2,8,2,4,8,2,2,1090,2,546,8,4
C=CCc1ccc(OCCCC[N+](C)(C)CC(=O)NCCCCC)c(-c2ccc(OCCCC[N+](C)(C)CC(=O)NCCCCC)c(CC=C)c2)c1.[Br-].[Br-],2,2,16,2,2,1,2,16,2,8,4,2,2,2,2,448,2,112,8,2
C=CCc1ccc(OCCC[N+](C)(C)CC(=O)NCCC)c(-c2ccc(OCCC[N+](C)(C)CC(=O)NCCC)c(CC=C)c2)c1.[Br-].[Br-],2,2,16,2,4,4,4,16,4,32,2,2,1,2,4,682,4,341,32,4
C=CCc1ccc(OCC[N+](C)(C)CC(=O)NCC)c(-c2ccc(OCC[N+](C)(C)CC(=O)NCC)c(CC=C)c2)c1.[Br-].[Br-],4,8,32,4,8,8,8,32,4,64,8,4,4,4,4,639,4,79.9,32,4
C=CCc1ccc(OCC[N+](C)(C)CC(=O)NCCCCCC)c(-c2ccc(OCC[N+](C)(C)CC(=O)NCCCCCC)c(CC=C)c2)c1.[Br-].[Br-],4,4,32,8,8,8,8,32,4,32,8,8,4,16,8,934,8,117,32,8
C=CCc1ccc(OCCC[N+](C)(C)CC(=O)NCC)c(-c2ccc(OCCC[N+](C)(C)CC(=O)NCC)c(CC=C)c2)c1.[Br-].[Br-],4,4,16,4,4,8,4,32,4,32,2,9,4,2,4,1130,4,567,64,4
C=CCc1ccc(O)c(-c2cc(CC=C)ccc2OCCC[N+](C)(C)CC(=O)N(CCCC)CCCC)c1.[Br-],2,2,8,2,4,4,2,8,2,16,2,4,0.5,2,1,764,2,382,8,0.5
C=CCc1ccc(OCCCC[N+](C)(C)CC(=O)NCCC)c(-c2ccc(OCCCC[N+](C)(C)CC(=O)NCCC)c(CC=C)c2)c1.[Br-].[Br-],8,2,8,4,4,4,4,8,8,8,2,4,2,4,8,644,8,322,8,2
